Where “and” joins values, the source holds several entries; their conditions need not be identical. Identical values can stand only once.
What was measured:
[1] = tested on: tomato; assay: Experimental Example 2: Efficacy test on tomato using oil based formulation (reddening grade); type: in vivo; conditions: 1.0 mM oil-based formulation, individual tomatoes n=4
Source text: (§1) At this time, the tops of tomatoes most early turned red, while the bottoms thereof most lately turned red. For this reason, in order to accurately evaluate the difference in reddening, the coloring evaluated was based on the area of red color, rather than the color of tomatoes. […] Accordingly, the grade level is proportional to the rate at which the tomatoes ripened.
As illustrated in Example 1, in situ, in accordance with the methods of Preparation Examples 15, 16, 17, 18 and 22, five agents (1.0 mmol) such as 1-(2-phenylethyl)cyclopropene, 1-(3-phenylpropyl)cyclopropene, 1-(4-phenylbutyl)cyclopropene, 1-(5-phenylpentyl)cyclopropene and 1-hexylcyclopropene were prepared, 5.0 ml of xylene and 5.0 ml of water were added to the reaction solution, vigorously stirred for 5 minutes and stood. When the mixture was separated into an organic layer (upper layer) and an aqueous layer (lower layer), only the organic layer was collected and the aqueous layer was discarded. […] of hexane was added to the organic layer and homogeneously mixed to prepare a 1.0 mM oil-based formulation.
The tomatoes were screened in the same manner as in Experimental Example 1 and divided into 7 groups (n=4) including a non-treated group, a control group (solvent-treated group) and 5 agent groups. Tomatoes were treated with the previously prepared agent using a household sprayer such that the surface thereof was saturated. The tomatoes were stood at room temperature (25-30° C.) for 3 days and a reddening level thereof was evaluated based on grades of 0 to 5.

[2] = Relative chemical stability of cyclopropenes measured by 1H-NMR; type: physicochemical
In short: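 Compounds in CDCl3 NMR tubes stored at −20° C. or room temperature and followed by 1H-NMR. Integrals of characteristic 1-alkylcyclopropene peaks (4–6.5 ppm, 1H; 0.8–0.9 ppm, 2H) compared against 1,1,3,3-tetramethylurea internal standard (2.80 ppm); stability expressed relative to chain-length-1 analogue.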

[3] = tested on: tomato; assay: Experimental Example 1: Efficacy test on tomato using emulsion (reddening grade); type: in vivo; conditions: individual tomatoes n=4
Protocol: In situ, a 1.0 mM 1-octylcyclopropene formulation was prepared using (trans)-1-octyl-1-(methanesulfonyloxy)-2-(trimethylsilyl)cyclopropane of Preparation Example 10 in the same manner as in Example 7. This solution was diluted to 1 to 100 times prior to use, as necessary. Experimental Example 1: Efficacy test on tomato using emulsion 1.0 mM formulations of five agents such as 1-(2-phenylethyl)cyclopropene, 1-(3-phenylpropyl)cyclopropene, 1-(4-phenylbutyl)cyclopropene, 1-(5-phenylpentyl)cyclopropene and 1-hexylcyclopropene were prepared in the same manner as in Example 1, and 1.0 mM and 100 μM solutions were prepared therefrom. Then, the effects of the solutions were compared with non-treated groups and control groups in which a surfactant or a stabilizing agent (sodium dodecylbenzenesulfonate or tristyrenylphenykethoxy)12ethanol) is dissolved.
Tomatoes whose top end began to turn pink were screened, harvested and divided into 12 groups (n=4) in total, i.e., non-treated groups, control groups (surfactant) and agent groups with different concentrations such as 100 μM and 1.0 mM. Tomatoes were treated with the prepared agent formulation using a household sprayer such that the surface thereof was saturated. The tomatoes were stood at room temperature (25-30° C.) for 3 days and a reddening level thereof was evaluated based on grades of 0 to 5.
as §1

C1=C(CCCCc2ccccc2)C1 [(4-Phenylbutyl), 1-(4-phenylbutyl)cyclopropene]
Tomato results: reddening level (grade 0 to 5) ([1]; Day 0, room temperature (25-30° C.)): 0 (an area in which the surface of tomato was colored in pink was 10% or less) (2×) and 1 (an area in which the surface of tomato was completely colored in red was 10 to 40%) and 2 (an area in which the surface of tomato was completely colored in red was 40 to 70%)
Tomato results: reddening level (grade 0 to 5) ([1]; Day 1, room temperature (25-30° C.)): 0 (an area in which the surface of tomato was colored in pink was 10% or less) (2×) and 1 (an area in which the surface of tomato was completely colored in red was 10 to 40%) and 2 (an area in which the surface of tomato was completely colored in red was 40 to 70%)
Tomato results: reddening level (grade 0 to 5) ([1]; Day 2, room temperature (25-30° C.)): 0 (an area in which the surface of tomato was colored in pink was 10% or less) (2×) and 1 (an area in which the surface of tomato was completely colored in red was 10 to 40%) and 3 (an area in which the surface of tomato was completely colored in red was 70% or more and the bottom area remained green)
Tomato results: reddening level (grade 0 to 5) ([1]; Day 3, room temperature (25-30° C.)): 1 (an area in which the surface of tomato was completely colored in red was 10 to 40%) and 0 (an area in which the surface of tomato was colored in pink was 10% or less) and 2 (an area in which the surface of tomato was completely colored in red was 40 to 70%) and 4
chemical stability (in words) [2]: much more stable
Stability (relative chemical stability, based on cyclopropenes having a chain length of 1) ([2]; 1H-NMR, CDCl3, stored at −20° C. or room temperature, relative to chain length 1): >>10
reddening level (grade 0 to 5) ([3]; 100 μM, Day 0, room temperature (25-30° C.)): 0 (an area in which the surface of tomato was colored in pink was 10% or less) (2×) and 1 (an area in which the surface of tomato was completely colored in red was 10 to 40%) and 2 (an area in which the surface of tomato was completely colored in red was 40 to 70%)
reddening level (grade 0 to 5) ([3]; 100 μM, Day 1, room temperature (25-30° C.)): 0 (an area in which the surface of tomato was colored in pink was 10% or less) (2×) and 1 (an area in which the surface of tomato was completely colored in red was 10 to 40%) and 2 (an area in which the surface of tomato was completely colored in red was 40 to 70%)
reddening level (grade 0 to 5) ([3]; 100 μM, Day 2, room temperature (25-30° C.)): 1 (an area in which the surface of tomato was completely colored in red was 10 to 40%) (2×) and 2 (an area in which the surface of tomato was completely colored in red was 40 to 70%) and 3 (an area in which the surface of tomato was completely colored in red was 70% or more and the bottom area remained green)
reddening level (grade 0 to 5) ([3]; 100 μM, Day 3, room temperature (25-30° C.)): 2 (an area in which the surface of tomato was completely colored in red was 40 to 70%) (2×) and 3 (an area in which the surface of tomato was completely colored in red was 70% or more and the bottom area remained green) and 4
reddening level (grade 0 to 5) ([3]; 1.0 mM, Day 0, room temperature (25-30° C.)): 0 (an area in which the surface of tomato was colored in pink was 10% or less) (2×) and 1 (an area in which the surface of tomato was completely colored in red was 10 to 40%) and 2 (an area in which the surface of tomato was completely colored in red was 40 to 70%)
reddening level (grade 0 to 5) ([3]; 1.0 mM, Day 1, room temperature (25-30° C.)): 0 (an area in which the surface of tomato was colored in pink was 10% or less) (2×) and 1 (an area in which the surface of tomato was completely colored in red was 10 to 40%) and 2 (an area in which the surface of tomato was completely colored in red was 40 to 70%)
reddening level (grade 0 to 5) ([3]; 1.0 mM, Day 2, room temperature (25-30° C.)): 0 (an area in which the surface of tomato was colored in pink was 10% or less) (2×) and 1 (an area in which the surface of tomato was completely colored in red was 10 to 40%) and 3 (an area in which the surface of tomato was completely colored in red was 70% or more and the bottom area remained green)
reddening level (grade 0 to 5) ([3]; 1.0 mM, Day 3, room temperature (25-30° C.)): 1 (an area in which the surface of tomato was completely colored in red was 10 to 40%) (2×) and 2 (an area in which the surface of tomato was completely colored in red was 40 to 70%) and 3 (an area in which the surface of tomato was completely colored in red was 70% or more and the bottom area remained green)
